# Measured values taken from patent publication US6737383B1, “Herbicidal oxadiazolidines” (priority 1999, dated 2004).
# Key:
# pigweed = assay: Test B pre/postemergence pigweed; format: in vivo, Amaranthus retroflexus
# Outline: (§1)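 Response is a visual 0-to-10 score relative to untreated plants, where 0 means no effect and 10 means complete control, taken twelve to sixteen days after application. Treatments went onto soil at planting and onto foliage of 1- to 4-leaf plants, using a surfactant-containing non-phytotoxic solvent.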
# rape = assay: Test B pre/postemergence rape; format: in vivo, Brassica napus
# Outline: as §1
# bedstraw = assay: Test B pre/postemergence bedstraw; format: in vivo, Galium aparine
# Outline: as §1
# crabgrass = assay: Test B pre/postemergence crabgrass; format: in vivo, Digitaria sanguinalis
# Outline: as §1
# morningglory = assay: Test B pre/postemergence morningglory; format: in vivo, Ipomoea hederacea
# Outline: as §1
# corn = assay: Test B pre/postemergence corn; format: in vivo, Zea mays
# Outline: as §1
# blackgrass = assay: Test B pre/postemergence blackgrass; format: in vivo, Alopecurus myosuroides
# Outline: as §1
# wild oat = assay: Test B pre/postemergence wild oat; format: in vivo, Avena fatua
# Outline: as §1
# wheat = assay: Test B pre/postemergence wheat; format: in vivo, Triticum aestivum
# Outline: as §1
# surinam grass = assay: Test B pre/postemergence surinam grass; format: in vivo, Brachiaria decumbens
# Outline: as §1
# cocklebur = assay: Test B pre/postemergence cocklebur; format: in vivo, Xanthium strumarium
# Outline: as §1
# velvetleaf = assay: Test B pre/postemergence velvetleaf; format: in vivo, Abutilon theophrasti
# Outline: as §1
# giant foxtail = assay: Test B pre/postemergence giant foxtail; format: in vivo, Setaria faberii
# Outline: as §1
# purple nutsedge = assay: Test B pre/postemergence purple nutsedge; format: in vivo, Cyperus rotundus
# Outline: as §1
# soybean = assay: Test B pre/postemergence soybean; format: in vivo, Glycine max
# Outline: as §1
# sugar beet = assay: Test B pre/postemergence sugar beet; format: in vivo, Beta vulgaris
# Outline: as §1
# [1] = Postemergence, Rate 62 g/ha, scale 0 to 10, 0 is no effect, 10 is complete control
# [2] = Postemergence, Rate 125 g/ha, scale of 0 to 10 where 0 is no effect and 10 is complete control
# [3] = Postemergence, Rate 500 g/ha, scale 0 (no effect) to 10 (complete control)
# [4] = Rate 62 g/ha, Preemergence, scale 0 to 10
# [5] = Rate 125 g/ha, Preemergence, scale 0 to 10 (0 no effect, 10 complete control)
# [6] = Rate 250 g/ha, Postemergence, scale 0 to 10, 0 is no effect, 10 is complete control
# [7] = Rate 500 g/ha, Preemergence, scale 0 to 10 (0 no effect, 10 complete control)
# [8] = Preemergence, Rate 250 g/ha, scale 0 (no effect) to 10 (complete control)
# [9] = Rate 62 g/ha, Preemergence, scale 0 (no effect) to 10 (complete control)
# [10] = Rate 500 g/ha, Postemergence, scale 0 to 10, 0 is no effect, 10 is complete control
smiles,measurement,setting,value
CON=CC(C)n1c(=O)on(C(=O)N(c2ccccc2)C(C)C)c1=O (centres unmarked) [Compound 790],"Plant response rating, Redroot pigweed",pigweed; [1],0
same,Redroot pigweed plant response rating,pigweed; [2],5
same,Redroot pigweed plant response rating,pigweed; [3],5
same,Redroot pigweed plant response rating,pigweed; [4],2
same,Redroot pigweed plant response rating,pigweed; [5],6
same,Redroot pigweed plant response rating,pigweed; [6],5
same,Redroot pigweed plant response rating,pigweed; [7],10
same,"Plant response rating, Rape",rape; [1],0
same,Rape plant response rating,rape; [2],0
same,Rape plant response rating,rape; [3],3
same,Rape plant response rating,rape; [4],2
same,Rape plant response rating,rape; [5],4
same,Rape plant response rating,rape; [6],3
same,Rape plant response rating,rape; [7],8
same,"Plant response rating, Bedstraw",bedstraw; [1],0
same,Bedstraw plant response rating,bedstraw; [2],0
same,Bedstraw plant response rating,bedstraw; [3],5
same,Bedstraw plant response rating,bedstraw; [8],7
same,Bedstraw plant response rating,bedstraw; [4],0
same,Bedstraw plant response rating,bedstraw; [5],3
same,Bedstraw plant response rating,bedstraw; [6],0
same,Bedstraw plant response rating,bedstraw; [7],9
same,"Plant response rating, Crabgrass",crabgrass; [1],9
same,Crabgrass plant response rating,crabgrass; [3],9
same,Crabgrass plant response rating,crabgrass; [8],10
same,Crabgrass plant response rating,crabgrass; [4],10
same,Crabgrass plant response rating,crabgrass; [5],10
same,Crabgrass plant response rating,crabgrass; [6],9
same,Crabgrass plant response rating,crabgrass; [7],10
same,"Plant response rating, Morningglory",morningglory; [1],2
same,Morningglory plant response rating,morningglory; [2],4
same,Morningglory plant response rating,morningglory; [3],10
same,Morningglory plant response rating,morningglory; [4],0
same,Morningglory plant response rating,morningglory; [5],0
same,Morningglory plant response rating,morningglory; [6],7
same,Morningglory plant response rating,morningglory; [7],7
same,"Plant response rating, Corn",corn; [1],0
same,Corn plant response rating,corn; [2],2
same,Corn plant response rating,corn; [3],4
same,Corn plant response rating,corn; [8],8
same,Corn plant response rating,corn; [4],2
same,Corn plant response rating,corn; [5],7
same,Corn plant response rating,corn; [6],4
same,Corn plant response rating,corn; [7],9
same,"Plant response rating, Blackgrass",blackgrass; [1],4
same,Blackgrass plant response rating,blackgrass; [2],5
same,Blackgrass plant response rating,blackgrass; [3],5
same,Blackgrass plant response rating,blackgrass; [8],9
same,Blackgrass plant response rating,blackgrass; [4],8
same,Blackgrass plant response rating,blackgrass; [5],9
same,Blackgrass plant response rating,blackgrass; [6],5
same,Blackgrass plant response rating,blackgrass; [7],10
same,"Plant response rating, Wild oats",wild oat; [1],0
same,Wild oats plant response rating,wild oat; [3],3
same,Wild oats plant response rating,wild oat; [4],0
same,Wild oats plant response rating,wild oat; [5],6
same,Wild oats plant response rating,wild oat; [6],0
same,Wild oats plant response rating,wild oat; [7],10
same,"Plant response rating, Wheat",wheat; [1],2
same,Wheat plant response rating,wheat; [3],5
same,Wheat plant response rating,wheat; [4],0
same,Wheat plant response rating,wheat; [5],2
same,Wheat plant response rating,wheat; [6],4
same,Wheat plant response rating,wheat; [7],9
same,"Plant response rating, B. signalgrass",surinam grass; [1],2
same,B. signalgrass plant response rating,surinam grass; [2],6
same,B. signalgrass plant response rating,surinam grass; [8],9
same,B. signalgrass plant response rating,surinam grass; [9],8
same,B. signalgrass plant response rating,surinam grass; [5],9
same,B. signalgrass plant response rating,surinam grass; [6],7
same,B. signalgrass plant response rating,surinam grass; [10],7
same,B. signalgrass plant response rating,surinam grass; [7],9
same,"Plant response rating, Cocklebur",cocklebur; [1],0
same,Cocklebur plant response rating,cocklebur; [2],0
same,Cocklebur plant response rating,cocklebur; [3],0
same,Cocklebur plant response rating,cocklebur; [8],10
same,Cocklebur plant response rating,cocklebur; [4],0
same,Cocklebur plant response rating,cocklebur; [5],0
same,Cocklebur plant response rating,cocklebur; [6],0
same,Cocklebur plant response rating,cocklebur; [7],10
same,"Plant response rating, Velvetleaf",velvetleaf; [1],4
same,Velvetleaf plant response rating,velvetleaf; [3],7
same,Velvetleaf plant response rating,velvetleaf; [4],0
same,Velvetleaf plant response rating,velvetleaf; [5],2
same,Velvetleaf plant response rating,velvetleaf; [6],5
same,Velvetleaf plant response rating,velvetleaf; [7],7
same,"Plant response rating, Giant foxtail",giant foxtail; [1],9
same,Giant foxtail plant response rating,giant foxtail; [2],9
same,Giant foxtail plant response rating,giant foxtail; [3],8
same,Giant foxtail plant response rating,giant foxtail; [8],lo
same,Giant foxtail plant response rating,giant foxtail; [4],10
same,Giant foxtail plant response rating,giant foxtail; [5],10
same,Giant foxtail plant response rating,giant foxtail; [6],8
same,Giant foxtail plant response rating,giant foxtail; [7],10
same,"Plant response rating, Nutsedge",purple nutsedge; [1],0
same,Nutsedge plant response rating,purple nutsedge; [2],0
same,Nutsedge plant response rating,purple nutsedge; [3],7
same,Nutsedge plant response rating,purple nutsedge; [4],0
same,Nutsedge plant response rating,purple nutsedge; [5],0
same,Nutsedge plant response rating,purple nutsedge; [6],5
same,Nutsedge plant response rating,purple nutsedge; [7],0
same,"Plant response rating, Soybean",soybean; [1],2
same,Soybean plant response rating,soybean; [3],4
same,Soybean plant response rating,soybean; [4],0
same,Soybean plant response rating,soybean; [5],0
same,Soybean plant response rating,soybean; [6],4
same,Soybean plant response rating,soybean; [7],2
same,"Plant response rating, Sugarbeets",sugar beet; [1],0
same,Sugarbeets plant response rating,sugar beet; [3],7
same,Sugarbeets plant response rating,sugar beet; [4],1
same,Sugarbeets plant response rating,sugar beet; [5],2
same,Sugarbeets plant response rating,sugar beet; [6],0
same,Sugarbeets plant response rating,sugar beet; [7],7
CC(C)N(C(=O)n1oc(=O)n(CCCCCl)c1=O)c1ccccc1 [Compound 792],"Plant response rating, Redroot pigweed",pigweed; [1],0
same,Redroot pigweed plant response rating,pigweed; [2],6
same,Redroot pigweed plant response rating,pigweed; [4],7
same,Redroot pigweed plant response rating,pigweed; [5],9
same,Redroot pigweed plant response rating,pigweed; [6],6
same,"Plant response rating, Rape",rape; [1],3
same,Rape plant response rating,rape; [2],3
same,Rape plant response rating,rape; [3],7
same,Rape plant response rating,rape; [4],0
same,Rape plant response rating,rape; [5],0
same,Rape plant response rating,rape; [6],7
same,Bedstraw plant response rating,bedstraw; [2],7
same,Bedstraw plant response rating,bedstraw; [8],4
same,Bedstraw plant response rating,bedstraw; [4],0
same,Bedstraw plant response rating,bedstraw; [5],0
same,"Plant response rating, Crabgrass",crabgrass; [1],2
same,Crabgrass plant response rating,crabgrass; [2],9
same,Crabgrass plant response rating,crabgrass; [3],9
same,Crabgrass plant response rating,crabgrass; [8],10
same,Crabgrass plant response rating,crabgrass; [4],10
same,Crabgrass plant response rating,crabgrass; [5],10
same,Crabgrass plant response rating,crabgrass; [7],10
same,"Plant response rating, Morningglory",morningglory; [1],6
same,Morningglory plant response rating,morningglory; [2],7
same,Morningglory plant response rating,morningglory; [3],10
same,Morningglory plant response rating,morningglory; [4],0
same,Morningglory plant response rating,morningglory; [5],0
same,Morningglory plant response rating,morningglory; [6],10
same,Morningglory plant response rating,morningglory; [7],0
same,"Plant response rating, Corn",corn; [1],0
same,Corn plant response rating,corn; [2],1
same,Corn plant response rating,corn; [3],3
same,Corn plant response rating,corn; [8],4
same,Corn plant response rating,corn; [4],0
same,Corn plant response rating,corn; [5],2
same,Corn plant response rating,corn; [6],2
same,Corn plant response rating,corn; [7],4
same,"Plant response rating, Blackgrass",blackgrass; [1],4
same,Blackgrass plant response rating,blackgrass; [2],7
same,Blackgrass plant response rating,blackgrass; [3],7
same,Blackgrass plant response rating,blackgrass; [8],8
same,Blackgrass plant response rating,blackgrass; [4],1
same,Blackgrass plant response rating,blackgrass; [5],4
same,"Plant response rating, Wild oats",wild oat; [1],0
same,Wild oats plant response rating,wild oat; [3],6
same,Wild oats plant response rating,wild oat; [4],0
same,Wild oats plant response rating,wild oat; [5],0
same,Wild oats plant response rating,wild oat; [6],2
same,"Plant response rating, Wheat",wheat; [1],0
same,Wheat plant response rating,wheat; [3],3
same,Wheat plant response rating,wheat; [4],0
same,Wheat plant response rating,wheat; [5],0
same,Wheat plant response rating,wheat; [6],1
same,"Plant response rating, B. signalgrass",surinam grass; [1],0
same,B. signalgrass plant response rating,surinam grass; [2],0
same,B. signalgrass plant response rating,surinam grass; [8],9
same,B. signalgrass plant response rating,surinam grass; [9],0
same,B. signalgrass plant response rating,surinam grass; [5],0
same,B. signalgrass plant response rating,surinam grass; [6],0
same,B. signalgrass plant response rating,surinam grass; [10],2
same,"Plant response rating, Cocklebur",cocklebur; [1],0
same,Cocklebur plant response rating,cocklebur; [2],1
same,Cocklebur plant response rating,cocklebur; [3],3
same,Cocklebur plant response rating,cocklebur; [8],0
same,Cocklebur plant response rating,cocklebur; [4],0
same,Cocklebur plant response rating,cocklebur; [6],3
same,Cocklebur plant response rating,cocklebur; [7],0
same,"Plant response rating, Velvetleaf",velvetleaf; [1],0
same,Velvetleaf plant response rating,velvetleaf; [3],7
same,Velvetleaf plant response rating,velvetleaf; [4],0
same,Velvetleaf plant response rating,velvetleaf; [5],3
same,Velvetleaf plant response rating,velvetleaf; [6],6
same,Velvetleaf plant response rating,velvetleaf; [7],5
same,"Plant response rating, Giant foxtail",giant foxtail; [1],2
same,Giant foxtail plant response rating,giant foxtail; [2],9
same,Giant foxtail plant response rating,giant foxtail; [3],9
same,Giant foxtail plant response rating,giant foxtail; [8],10
same,Giant foxtail plant response rating,giant foxtail; [4],10
same,Giant foxtail plant response rating,giant foxtail; [5],10
same,Giant foxtail plant response rating,giant foxtail; [6],9
same,Giant foxtail plant response rating,giant foxtail; [7],10
same,"Plant response rating, Nutsedge",purple nutsedge; [1],0
same,Nutsedge plant response rating,purple nutsedge; [2],0
same,Nutsedge plant response rating,purple nutsedge; [3],0
same,Nutsedge plant response rating,purple nutsedge; [4],0
same,Nutsedge plant response rating,purple nutsedge; [5],0
same,Nutsedge plant response rating,purple nutsedge; [6],0
same,Nutsedge plant response rating,purple nutsedge; [7],0
same,"Plant response rating, Soybean",soybean; [1],4
same,Soybean plant response rating,soybean; [3],7
same,Soybean plant response rating,soybean; [4],0
same,Soybean plant response rating,soybean; [5],0
same,Soybean plant response rating,soybean; [6],5
same,Soybean plant response rating,soybean; [7],0
same,"Plant response rating, Sugarbeets",sugar beet; [1],0
same,Sugarbeets plant response rating,sugar beet; [3],2
same,Sugarbeets plant response rating,sugar beet; [4],0
same,Sugarbeets plant response rating,sugar beet; [5],3
same,Sugarbeets plant response rating,sugar beet; [6],2
